Where two headings read alike, the source gives them in different places.
System: recombinant NL4-3 virus (Renilla luciferase) in MT-2 cells
Experiment: HIV cell culture assay (antiviral activity, luciferase readout in infected MT-2 cells)
Type: cell-based
Procedure, shortened: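 Nef-deleted NL4-3 carrying Renilla luciferase, produced by 293T transfection, used to infect MT-2 cells for 4–5 days with serial compound dilutions. Live-cell luciferase signal read as infection marker; EC50 from exponential median-effect equation.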

[1] = Renilla, NL43, read-out: Activity, antiviral activity class, recombinant NL4-3 Renilla luciferase virus in MT-2 cells
[2] = Renilla, NL43, recombinant NL4-3 Renilla luciferase virus in MT-2 cells

Compound | EC50 [1] | EC50 [2] | EC50 (read-out: Activity, antiviral activity class, recombinant NL4-3 Renilla luciferase virus in MT-2 cells)
CN(C(=O)[C@H](Cc1ccccc1)NC(=O)NS(=O)(=O)c1ccccc1-c1ccc(CO)cc1)c1ccc2c(c1)OCO2 [Example 124, (S)—N-(benzo[d][1,3]dioxol-5-yl)-2-(3-((4′-(hydroxymethyl)-[1,1′-biphenyl]-2-yl)sulfonyl)ureido)-N-methyl-3-phenylpropanamide] | 1000 to 10000 nM |  | 
CN(C(=O)[C@H](Cc1ccccc1)NC(=O)NS(=O)(=O)c1ccccc1-c1cccc(O)c1)c1ccc2c(c1)OCO2 [Example 125, (S)—N-(benzo[d][1,3]dioxol-5-yl)-2-(3-((3′-hydroxy-[1,1′-biphenyl]-2-yl)sulfonyl)ureido)-N-methyl-3-phenylpropanamide] | 1000 to 10000 nM |  | 
COc1ccc(-c2ccccc2S(=O)(=O)NC(=O)N[C@@H](Cc2ccccc2)C(=O)N(C)c2ccc3c(c2)OCO3)cn1 [Example 126, (S)—N-(benzo[d][1,3]dioxol-5-yl)-2-(3-((2-(6-methoxypyridin-3-yl)phenyl)sulfonyl)ureido)-N-methyl-3-phenylpropanamide] | 10000 to 100000 nM |  | 
CN(C(=O)[C@H](Cc1ccccc1)NC(=O)NS(=O)(=O)c1ccccc1-c1cncnc1)c1ccc2c(c1)OCO2 [Example 127, (S)—N-(benzo[d][1,3]dioxol-5-yl)-N-methyl-3-phenyl-2-(3-((2-(pyrimidin-5-yl)phenyl)sulfonyl)ureido)propanamide] | 10000 to 100000 nM | 21700 nM | 
CN(C(=O)[C@H](Cc1ccccc1)NC(=O)NS(=O)(=O)c1ccccc1-c1cccnc1)c1ccc2c(c1)OCO2 [Example 128, (S)—N-(benzo[d][1,3]dioxol-5-yl)-N-methyl-3-phenyl-2-(3-((2-(pyridin-3-yl)phenyl)sulfonyl)ureido)propanamide] | 1000 to 10000 nM |  | 
COc1ncccc1-c1ccccc1S(=O)(=O)NC(=O)N[C@@H](Cc1ccccc1)C(=O)N(C)c1ccc2c(c1)OCO2 [Example 129, (S)—N-(benzo[d][1,3]dioxol-5-yl)-2-(3-((2-(2-methoxypyridin-3-yl)phenyl)sulfonyl)ureido)-N-methyl-3-phenylpropanamide] | 1000 to 10000 nM | 5520 nM | 
COc1ncc(-c2ccccc2S(=O)(=O)NC(=O)N[C@@H](Cc2ccccc2)C(=O)N(C)c2ccc3c(c2)OCO3)cn1 [Example 130, (S)—N-(benzo[d][1,3]dioxol-5-yl)-2-(3-((2-(2-methoxypyrimidin-5-yl)phenyl)sulfonyl)ureido)-N-methyl-3-phenylpropanamide] | 1000 to 10000 nM |  | 
CN(C(=O)[C@H](Cc1ccccc1)NC(=O)NS(=O)(=O)c1ccccc1-c1ccc(C(N)=O)cc1)c1ccc2c(c1)OCO2 [Example 131, (S)-2′-(N-((1-(benzo[d][1,3]dioxol-5-yl(methyl)amino)-1-oxo-3-phenylpropan-2-yl)carbamoyl)sulfamoyl)-[1,1′-biphenyl]-4-carboxamide] | 10000 to 100000 nM |  | 
CN(C(=O)[C@H](Cc1ccccc1)NC(=O)NS(=O)(=O)c1ccccc1-c1ccsc1)c1ccc2c(c1)OCO2 [Example 132, (S)—N-(benzo[d][1,3]dioxol-5-yl)-N-methyl-3-phenyl-2-(3-((2-(thiophen-3-yl)phenyl)sulfonyl)ureido)propanamide] | 10000 to 100000 nM |  | 
CN(C(=O)[C@H](Cc1ccccc1)NC(=O)NS(=O)(=O)c1ccccc1-c1cnn(C)c1)c1ccc2c(c1)OCO2 [Example 133, (S)—N-(benzo[d][1,3]dioxol-5-yl)-N-methyl-2-(3-((2-(1-methyl-1H-pyrazol-4-yl)phenyl)sulfonyl)ureido)-3-phenylpropanamide] |  |  | 100 to 1000 nM
C=C(C)c1ccccc1S(=O)(=O)NC(=O)N[C@@H](Cc1ccccc1)C(=O)N(C)c1ccc2c(c1)OCO2 [Example 134, (S)—N-(benzo[d][1,3]dioxol-5-yl)-N-methyl-3-phenyl-2-(3-((2-(prop-1-en-2-yl)phenyl)sulfonyl)ureido)propanamide] | 1000 to 10000 nM |  | 
CC(C)c1ccccc1S(=O)(=O)NC(=O)N[C@@H](Cc1ccccc1)C(=O)N(C)c1ccc2c(c1)OCO2 [Example 135, (S)—N-(benzo[d][1,3]dioxol-5-yl)-2-(3-((2-isopropylphenyl)sulfonyl)ureido)-N-methyl-3-phenylpropanamide] | 100 to 1000 nM |  | 
C=Cc1ccccc1S(=O)(=O)NC(=O)N[C@@H](Cc1ccccc1)C(=O)N(C)c1ccc2c(c1)OCO2 [Example 136, (S)—N-(benzo[d][1,3]dioxol-5-yl)-N-methyl-3-phenyl-2-(3-((2-vinylphenyl)sulfonyl)ureido)propanamide] | < 100 nM |  | 
C/C=C\c1ccccc1S(=O)(=O)NC(=O)N[C@@H](Cc1ccccc1)C(=O)N(C)c1ccc2c(c1)OCO2 [Example 137, (S,Z)—N-(benzo[d][1,3]dioxol-5-yl)-N-methyl-3-phenyl-2-(3-((2-(prop-1-en-1-yl)phenyl)sulfonyl)ureido)propanamide] | 100 to 1000 nM |  | 
C=Cc1cccc(S(=O)(=O)NC(=O)N[C@@H](Cc2ccccc2)C(=O)N(CC)c2ccc(OC)cc2)c1 [Example 138, (S)—N-ethyl-N-(4-methoxyphenyl)-3-phenyl-2-(3-((3-vinylphenyl)sulfonyl)ureido)propanamide] | < 100 nM | 50 nM | 
C=C(C)c1cccc(S(=O)(=O)NC(=O)N[C@@H](Cc2ccccc2)C(=O)N(CC)c2ccc(OC)cc2)c1 [Example 139, (S)—N-ethyl-N-(4-methoxyphenyl)-3-phenyl-2-(3-((3-(prop-en-2-yl)phenyl)sulfonyl)ureido)propanamide] | < 100 nM |  | 

Compound | EC50 [1] | EC50 [2] | EC50 (read-out: Activity, antiviral activity class, recombinant NL4-3 Renilla luciferase virus in MT-2 cells)
C/C=C\c1cccc(S(=O)(=O)NC(=O)N[C@@H](Cc2ccccc2)C(=O)N(CC)c2ccc(OC)cc2)c1 [Example 140] | < 100 nM |  | 
CCc1cccc(S(=O)(=O)NC(=O)N[C@@H](Cc2ccccc2)C(=O)N(CC)c2ccc(OC)cc2)c1 [Example 141, (S)—N-ethyl-2-(3-((3-ethylphenyl)sulfonyl)ureido)-N-(4-methoxyphenyl)-3-phenylpropanamide] | < 100 nM |  | 
CCCc1cccc(S(=O)(=O)NC(=O)N[C@@H](Cc2ccccc2)C(=O)N(CC)c2ccc(OC)cc2)c1 [Example 142, (S)—N-ethyl-N-(4-methoxyphenyl)-3-phenyl-2-(3-((3-propylphenyl)sulfonyl)ureido)propanamide] | < 100 nM | 60 nM | 
CCN(C(=O)[C@H](Cc1ccccc1)NC(=O)NS(=O)(=O)c1cccc(C(C)C)c1)c1ccc(OC)cc1 [Example 143, (S)—N-ethyl-2-(3-((3-isopropylphenyl)sulfonyl)ureido)-N-(4-methoxyphenyl)-3-phenylpropanamide] | < 100 nM |  | 
CCc1ccc(C)c(S(=O)(=O)NC(=O)N[C@@H](Cc2ccccc2)C(=O)N(CC)c2ccc(OC)cc2)c1 [Example 144, (S)—N-ethyl-2-(3-((5-ethyl-2-methylphenyl)sulfonyl)ureido)-N-(4-methoxyphenyl)-3-phenylpropanamide] | 100 to 1000 nM | 620 nM | 
CCCc1ccccc1S(=O)(=O)NC(=O)N[C@@H](Cc1ccccc1)C(=O)N(C)c1ccc2c(c1)OCO2 [Example 145, (S)—N-(benzo[d][1,3]dioxol-5-yl)-N-methyl-3-phenyl-2-(3-((2-propylphenyl)sulfonyl)ureido)propanamide] | 100 to 1000 nM |  | 
CCc1ccccc1S(=O)(=O)NC(=O)N[C@@H](Cc1ccccc1)C(=O)N(C)c1ccc2c(c1)OCO2 [Example 146, (S)—N-(benzo[d][1,3]dioxol-5-yl)-2-(3-((2-ethylphenyl)sulfonyl)ureido)-N-methyl-3-phenylpropanamide] | < 100 nM |  | 
CCN(C(=O)[C@H](Cc1ccccc1)NC(=O)NS(=O)(=O)c1ccccc1N)c1ccc(OC)cc1 [Example 147, (S)-2-(3-((2-aminophenyl)sulfonyl)ureido)-N-ethyl-N-(4-methoxyphenyl)-3-phenylpropanamide] | < 100 nM |  | 
CN(C(=O)[C@H](Cc1ccccc1)NC(=O)NS(=O)(=O)c1ccccc1-c1ccc(F)nc1)c1ccc2c(c1)OCO2 [Example 148, (S)—N-(benzo[d][1,3]dioxol-5-yl)-2-(3-((2-(6-fluoropyridin-3-yl)phenyl)sulfonyl)ureido)-N-methyl-3-phenylpropanamide] | 1000 to 10000 nM |  | 
CCN(C(=O)[C@H](Cc1ccccc1)NC(=O)NS(=O)(=O)c1cccc(-c2ccco2)c1)c1ccc(OC)cc1 [Example 149] | 100 to 1000 nM |  | 
CCN(C(=O)[C@H](Cc1ccccc1)NC(=O)NS(=O)(=O)c1cccc(-c2ccsc2Cl)c1)c1ccc(OC)cc1 [Example 150, (S)-2-(3-((3-(2-chlorothiophen-3-yl)phenyl)sulfonyl)ureido)-N-ethyl-N-ethyl-N-(4-methoxyphenyl)-3-phenylpropanamide] | 100 to 1000 nM |  | 
CCN(C(=O)[C@H](Cc1ccccc1)NC(=O)NS(=O)(=O)c1cccc(-c2ccsc2)c1)c1ccc(OC)cc1 [Example 151, (S)—N-ethyl-N-(4-methoxyphenyl)-3-phenyl-2-(3-((3-(thiophen-3-yl)phenyl)sulfonyl)ureido)propanamide] | 100 to 1000 nM | 110 nM | 
CCN(C(=O)[C@H](Cc1ccccc1)NC(=O)NS(=O)(=O)c1cccc(-c2ccnn2C)c1)c1ccc(OC)cc1 [Example 152, (S)—N-ethyl-N-(4-methoxyphenyl)-2-(3-((3-(1-methyl-1H-pyrazol-5-yl)phenyl)sulfonyl)ureido)-3-phenylpropanamide] | < 100 nM | 90 nM | 
CCN(C(=O)[C@H](Cc1ccccc1)NC(=O)NS(=O)(=O)c1cccc(-c2csc3ccccc23)c1)c1ccc(OC)cc1 [Example 153, (S)-2-(3-((3-(benzo[b]thiophen-3-yl)phenyl)sulfonyl)ureido)-N-ethyl-N-(4-methoxyphenyl)-3-phenylpropanamide] | 100 to 1000 nM |  | 
CCN(C(=O)[C@H](Cc1ccccc1)NC(=O)NS(=O)(=O)c1cccc(-c2cc3c(OC)cccc3[nH]2)c1)c1ccc(OC)cc1 [Example 154, (S)—N-ethyl-2-(3-((3-(4-methoxy-1H-indol-2-yl)phenyl)sulfonyl)ureido)-N-(4-methoxyphenyl)-3-phenylpropanamide] | 100 to 1000 nM | 670 nM | 

— patent US10035760B2, “Inhibitors of human immunodeficiency virus replication” (priority 2013, dated 2018)
